Laboratory results taken from patent publication US20170190671A1, “BIS(ARYL)CATECHOL DERIVATIVES AS HERBICIDES” (E I DU PONT DE NEMOURS AND COMPANY, priority 2014, published 2017).

Legend:
Test in all cases: Test E preemergence
Type in all cases: in vivo
Conditions in all cases: scale 0 to 100
[1] = system: yellow nutsedge (Cyperus esculentus)
Source text: (§1) Seeds of plant species selected from corn (Zea mays), soybean (Glycine max), velvetleaf (Abutilon theophrasti), cocklebur (common cocklebur, Xanthium strumarium), lambsquarters (Chenopodium album), wild poinsettia (Euphorbia heterophylla), palmer pigweed (Amaranthus palmeri), waterhemp (common waterhemp, Amaranthus rudis), surinam grass (Brachiaria decumbens), large (Lg) crabgrass (Digitaria sanguinalis), Brazilian crabgrass (Digitaria horizontalis), fall panicum (Panicum dichotomiflorum), giant foxtail (Setaria faberii), green foxtail (Setaria viridis), goosegrass (Eleusine indica), johnsongrass (Sorghum halepense), ragweed (common ragweed, Ambrosia elatior), barnyardgrass (Echinochloa crus-galli), sandbur (southern sandbur, Cenchrus echinatus), arrowleaf sida (Sida rhombifolia), Italian ryegrass (Lolium multiflorum), dayflower (Virginia (VA) dayflower, Commelina virginica), field bindweed (Convolvulus arvensis), morningglory (Ipomoea coccinea), nightshade (eastern black nightshade, Solanum ptycanthum), kochia (Kochia scoparia), yellow nutsedge (Cyperus esculentus), horseweed (Conyza canadensis), and hairy beggarticks (Bidens pilosa), were planted into a silt loam soil and treated preemergence with test chemicals formulated in a non-phytotoxic solvent mixture which included a surfactant.
(§2) At the same time, plants from these crop and weed species and also waterhemp_RES1, (ALS & Triazine resistant common waterhemp, Amaranthus rudis), and waterhemp_RES2, (ALS & HPPD resistant common waterhemp, Amaranthus rudis) were planted in pots containing Redi-Earth® planting medium (Scotts Company, 14111 Scottslawn Road, Marysville, Ohio 43041) comprising spaghnum peat moss, vermiculite, wetting agent and starter nutrients were treated with postemergence applications of test chemicals formulated in the same manner. Plants ranged in height from 2 to 18 cm for postemergence treatments (1- to 4-leaf stage). Treated plants and controls were maintained in a greenhouse for 14 to 21 days, after which time all species were compared to controls and visually evaluated. Plant response ratings, summarized in Table E, are based on a scale of 0 to 100 where 0 is no effect and 100 is complete control. A dash (-) response means no test result.

corn (Zea mays) = system: corn (Zea mays)
Source text: as §1, §2

[2] = system: waterhemp (common waterhemp, Amaranthus rudis)
Source text: as §1, §2

[3] = system: hairy beggarticks (Bidens pilosa)
Source text: as §1, §2

[4] = system: arrowleaf sida (Sida rhombifolia)
Source text: as §1, §2

[5] = system: lambsquarters (Chenopodium album)
Source text: as §1, §2

[6] = system: Surinam grass (Brachiaria decumbens)
Source text: as §1, §2

[7] = system: green foxtail (Setaria viridis)
Source text: as §1, §2

[8] = system: ragweed (common ragweed, Ambrosia elatior)
Source text: as §1, §2

[9] = system: large (Lg) crabgrass (Digitaria sanguinalis)
Source text: as §1, §2

[10] = system: barnyardgrass (Echinochloa crus-galli)
Source text: as §1, §2

[11] = system: goosegrass (Eleusine indica)
Source text: as §1, §2

[12] = system: field bindweed (Convolvulus arvensis)
Source text: as §1, §2

[13] = system: sandbur (southern sandbur, Cenchrus echinatus)
Source text: as §1, §2

[14] = system: nightshade (eastern black nightshade, Solanum ptycanthum)
Source text: as §1, §2

soybean (Glycine max) = system: soybean (Glycine max)
Source text: as §1, §2

[15] = system: velvetleaf (Abutilon theophrasti)
Source text: as §1, §2

[16] = system: dayflower (Virginia (VA) dayflower, Commelina virginica)
Source text: as §1, §2

[17] = system: morningglory (Ipomoea coccinea)
Source text: as §1, §2

[18] = system: giant foxtail (Setaria faberii)
Source text: as §1, §2

[19] = system: palmer pigweed (Amaranthus palmeri)
Source text: as §1, §2

Clc1cnc(Oc2cccc(Br)c2Oc2ncc(Cl)cn2)nc1 [Compound 19, 2,2′-[[3-bromo-1,2-phenylene]bis(oxy)]bis[5-chloropyrimidine]]
Plant response rating, Nutsedge, Yellow ([1]; 16 g ai/ha): 0 | Plant response rating, Nutsedge, Yellow ([1]; 31 g ai/ha): 0 | Plant response rating, Nutsedge, Yellow ([1]; 62 g ai/ha): 0 | Plant response rating, Nutsedge, Yellow ([1]; 125 g ai/ha): 20 | Plant response rating, Corn (corn (Zea mays); 16 g ai/ha): 0 | Plant response rating, Corn (corn (Zea mays); 31 g ai/ha): 0 | Plant response rating, Corn (corn (Zea mays); 62 g ai/ha): 20 | Plant response rating, Corn (corn (Zea mays); 125 g ai/ha): 50 | Plant response rating, Waterhemp ([2]; 16 g ai/ha): 65 | Plant response rating, Waterhemp ([2]; 31 g ai/ha): 65 | Plant response rating, Waterhemp ([2]; 62 g ai/ha): 100 | Plant response rating, Waterhemp ([2]; 125 g ai/ha): 100 | Plant response rating, Beggarticks ([3]; 16 g ai/ha): 0 | Plant response rating, Beggarticks ([3]; 31 g ai/ha): 0 | Plant response rating, Beggarticks ([3]; 62 g ai/ha): 0 | Plant response rating, Beggarticks ([3]; 125 g ai/ha): 0 | Plant response rating, Arrowleaf Sida ([4]; 16 g ai/ha): 65 | Plant response rating, Arrowleaf Sida ([4]; 31 g ai/ha): 40 | Plant response rating, Arrowleaf Sida ([4]; 62 g ai/ha): 100 | Plant response rating, Arrowleaf Sida ([4]; 125 g ai/ha): 100 | Plant response rating, Lambsquarters ([5]; 16 g ai/ha): 60 | Plant response rating, Lambsquarters ([5]; 31 g ai/ha): 100 | Plant response rating, Lambsquarters ([5]; 62 g ai/ha): 100 | Plant response rating, Lambsquarters ([5]; 125 g ai/ha): 100 | Plant response rating, Surinam Grass ([6]; 16 g ai/ha): 0 | Plant response rating, Surinam Grass ([6]; 31 g ai/ha): 0 | Plant response rating, Surinam Grass ([6]; 62 g ai/ha): 10 | Plant response rating, Surinam Grass ([6]; 125 g ai/ha): 10 | Plant response rating, Foxtail, Green ([7]; 16 g ai/ha): 0 | Plant response rating, Foxtail, Green ([7]; 31 g ai/ha): 60 | Plant response rating, Foxtail, Green ([7]; 62 g ai/ha): 98 | Plant response rating, Foxtail, Green ([7]; 125 g ai/ha): 100 | Plant response rating, Ragweed ([8]; 16 g ai/ha): 0 | Plant response rating, Ragweed ([8]; 31 g ai/ha): 0 | Plant response rating, Ragweed ([8]; 62 g ai/ha): 10 | Plant response rating, Ragweed ([8]; 125 g ai/ha): 50 | Plant response rating, Crabgrass, Large ([9]; 16 g ai/ha): 20 | Plant response rating, Crabgrass, Large ([9]; 31 g ai/ha): 80 | Plant response rating, Crabgrass, Large ([9]; 62 g ai/ha): 100 | Plant response rating, Crabgrass, Large ([9]; 125 g ai/ha): 100 | Plant response rating, Barnyardgrass ([10]; 16 g ai/ha): 0 | Plant response rating, Barnyardgrass ([10]; 31 g ai/ha): 0 | Plant response rating, Barnyardgrass ([10]; 62 g ai/ha): 20 | Plant response rating, Barnyardgrass ([10]; 125 g ai/ha): 70 | Plant response rating, Goosegrass ([11]; 16 g ai/ha): 5 | Plant response rating, Goosegrass ([11]; 31 g ai/ha): 75 | Plant response rating, Goosegrass ([11]; 62 g ai/ha): 90 | Plant response rating, Goosegrass ([11]; 125 g ai/ha): 98 | Plant response rating, Field Bindweed ([12]; 16 g ai/ha): 0 | Plant response rating, Field Bindweed ([12]; 31 g ai/ha): 0 | Plant response rating, Field Bindweed ([12]; 62 g ai/ha): 0 | Plant response rating, Field Bindweed ([12]; 125 g ai/ha): 10 | Plant response rating, Sandbur ([13]; 16 g ai/ha): 0 | Plant response rating, Sandbur ([13]; 31 g ai/ha): 0 | Plant response rating, Sandbur ([13]; 62 g ai/ha): 0 | Plant response rating, Sandbur ([13]; 125 g ai/ha): 20 | Plant response rating, Nightshade ([14]; 16 g ai/ha): 0 | Plant response rating, Nightshade ([14]; 31 g ai/ha): 0 | Plant response rating, Nightshade ([14]; 62 g ai/ha): 65 | Plant response rating, Nightshade ([14]; 125 g ai/ha): 98 | Plant response rating, Soybean (soybean (Glycine max); 16 g ai/ha): 0 | Plant response rating, Soybean (soybean (Glycine max); 31 g ai/ha): 0 | Plant response rating, Soybean (soybean (Glycine max); 62 g ai/ha): 0 | Plant response rating, Soybean (soybean (Glycine max); 125 g ai/ha): 50 | Plant response rating, Velvetleaf ([15]; 16 g ai/ha): 0 | Plant response rating, Velvetleaf ([15]; 31 g ai/ha): 0 | Plant response rating, Velvetleaf ([15]; 62 g ai/ha): 50 | Plant response rating, Velvetleaf ([15]; 125 g ai/ha): 100 | Plant response rating, Dayflower, VA ([16]; 16 g ai/ha): 0 | Plant response rating, Dayflower, VA ([16]; 31 g ai/ha): 0 | Plant response rating, Dayflower, VA ([16]; 62 g ai/ha): 5 | Plant response rating, Dayflower, VA ([16]; 125 g ai/ha): 10 | Plant response rating, Morningglory ([17]; 16 g ai/ha): 0 | Plant response rating, Morningglory ([17]; 31 g ai/ha): 0 | Plant response rating, Morningglory ([17]; 62 g ai/ha): 5 | Plant response rating, Morningglory ([17]; 125 g ai/ha): 65 | Plant response rating, Foxtail, Giant ([18]; 16 g ai/ha): 0 | Plant response rating, Foxtail, Giant ([18]; 31 g ai/ha): 95 | Plant response rating, Foxtail, Giant ([18]; 62 g ai/ha): 100 | Plant response rating, Foxtail, Giant ([18]; 125 g ai/ha): 100 | Plant response rating, Pigweed, Palmer ([19]; 16 g ai/ha): 0 | Plant response rating, Pigweed, Palmer ([19]; 31 g ai/ha): 70 | Plant response rating, Pigweed, Palmer ([19]; 62 g ai/ha): 100 | Plant response rating, Pigweed, Palmer ([19]; 125 g ai/ha): 100
